These results are taken from US20230041563A1, “N-(1,3,4-OXADIAZOL-2-YL)ARYLCARBOXAMIDES OR SALTS THEREOF, PREPARATION METHODS, HERBICIDAL COMPOSITIONS AND USES THEREOF” (priority 2018, published 2023).

Holding throughout (format): in vivo
The subject of data set [1] is Abutilon theophrasti. The data set is described as follows: Weeding effect in post-emergence stage (greenhouse pot spray). The essentials: (§1)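 Greenhouse pot plants at the 2–3 leaf stage (2 weeks after sowing) were sprayed with compound in acetone with Tween 80 and methyl oleate EC synergist (1.5 L/ha) at 500, 250, 125, 60 or 15 g a.i./ha. Fresh-weight growth control was scored 3 weeks later, averaged over three replicates.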

Data set [2] has as its system Setaria viridis. Described as above. In outline:
as §1

Data set [3] relates to Digitaria sanguinalis. Described as above. In outline: as §1
In data set [4] the test system is Echinochloa crusgalli. Described as above. In outline: as §1
Data set [5] relates to weeds. The data set is described as follows: Actual control effects and combined effects of mixtures of active ingredients (i) and (ii), stem-leaf treatment, Gowing method. As to conditions: stem-leaf treatment, 20 days.
In data set [6] the test system is Stellaria media. The data set is described as follows: Weeding effect in post-emergence stage (greenhouse pot spray). The essentials: as §1
For data set [7], the system named is Amaranthus retroflexus. The description is as above. The essentials:
as §1

The subject of data set [8] is rice and Echinochloa crusgali. The data set is described as follows: Herbicide selection index between rice and Echinochloa crusgali. As to conditions: average dose causing 10% phytotoxicity to rice divided by average dose causing 90% control efficiency to Echinochloa crusgali.
For data set [9], the system named is Indica rice (Huanghuazhan). The data set is described as follows: Safety test of control experiments on rice. The source says:
(§2) The activity level criteria for plant damage (i.e., growth control rate) are as follows: Comparative Experiments: [table]

Data set [10] relates to Japonica rice (Huaidao No. 5). The data set is described as follows: Safety test of control experiments on rice.
From the text: as §2

On to `CSc1c(C(F)(F)F)ccc(C(=O)Nc2nnc(C)o2)c1F` [Compound 1-1], for which the “Abutilion theophrasti (activity level)” value in data set [1] (Table 2, dose 60 g a.i./ha) was 2 (Level 2: growth control rate is greater than or equal to 20% and less than 40%); in [1] (Table 2, dose 125 g a.i./ha) it was 4 (Level 4: growth control rate is greater than or equal to 60% and less than 85%); in data set [1] (Table 2, dose 250 g a.i./ha), 4 (Level 4: growth control rate is greater than or equal to 60% and less than 85%); in data set [1] (Table 2, dose 500 g a.i./ha) it was 4 (Level 4: growth control rate is greater than or equal to 60% and less than 85%). For the same compound, the “Abutilon theophrasti (activity level)” value in data set [1] (Table 3, dose 60 g a.i./ha) is 2 (Level 2: growth control rate is greater than or equal to 20% and less than 40%); in data set [1] (Table 3, dose 120 g a.i./ha), 4 (Level 4: growth control rate is greater than or equal to 60% and less than 85%). For the same compound, the “Setaria viridis (activity level)” value is 0 (Level 0: growth control rate is less than 5%) in data set [2] (Table 3, dose 7.5 g a.i./ha); 0 (Level 0: growth control rate is less than 5%) in data set [2] (Table 3, dose 15 g a.i./ha); 1 (Level 1: growth control rate is greater than or equal to 5% and less than 20%) in [2] (Table 3, dose 30 g a.i./ha); 1 (Level 1: growth control rate is greater than or equal to 5% and less than 20%) in [2] (Table 3, dose 60 g a.i./ha); 2 (Level 2: growth control rate is greater than or equal to 20% and less than 40%) in data set [2] (Table 3, dose 120 g a.i./ha). For the same compound, the “Digitaria sanguinalis (activity level)” value was 1 (Level 1: growth control rate is greater than or equal to 5% and less than 20%) in [3] (Table 2, dose 60 g a.i./ha); 2 (Level 2: growth control rate is greater than or equal to 20% and less than 40%) in [3] (Table 2, dose 125 g a.i./ha); 3 (Level 3: growth control rate is greater than or equal to 40% and less than 60%) in data set [3] (Table 2, dose 250 g a.i./ha); 4 (Level 4: growth control rate is greater than or equal to 60% and less than 85%) in data set [3] (Table 2, dose 500 g a.i./ha). For the same compound, the “Digitaria sanguinahs (activity level)” value was 0 (Level 0: growth control rate is less than 5%) in data set [3] (Table 3, dose 7.5 g a.i./ha); 0 (Level 0: growth control rate is less than 5%) in [3] (Table 3, dose 15 g a.i./ha); 1 (Level 1: growth control rate is greater than or equal to 5% and less than 20%) in [3] (Table 3, dose 30 g a.i./ha); 1 (Level 1: growth control rate is greater than or equal to 5% and less than 20%) in [3] (Table 3, dose 60 g a.i./ha); 2 (Level 2: growth control rate is greater than or equal to 20% and less than 40%) in data set [3] (Table 3, dose 120 g a.i./ha). In addition, the “Echinochloa crusgah (activity level)” value in [4] (Table 2, dose 60 g a.i./ha) was 2 (Level 2: growth control rate is greater than or equal to 20% and less than 40%); in data set [4] (Table 2, dose 125 g a.i./ha), 4 (Level 4: growth control rate is greater than or equal to 60% and less than 85%); in data set [4] (Table 2, dose 250 g a.i./ha), 4 (Level 4: growth control rate is greater than or equal to 60% and less than 85%); in data set [4] (Table 2, dose 500 g a.i./ha), 4 (Level 4: growth control rate is greater than or equal to 60% and less than 85%). Besides, the “Echinochloa crusgali (activity level)” value in data set [4] (Table 3, dose 7.5 g a.i./ha) was 0 (Level 0: growth control rate is less than 5%); in data set [4] (Table 3, dose 15 g a.i./ha), 1 (Level 1: growth control rate is greater than or equal to 5% and less than 20%); in data set [4] (Table 3, dose 30 g a.i./ha) it was 2 (Level 2: growth control rate is greater than or equal to 20% and less than 40%); in data set [4] (Table 3, dose 60 g a.i./ha), 2 (Level 2: growth control rate is greater than or equal to 20% and less than 40%). The “Control effect of (i) alone at corresponding dose” value (“Control effect of (i) alone” for short) in data set [5] (Cyperus difformis, (i) 1 g a.i./mu) amounted to 6.2%; in [5] (Cyperus difformis, (i) 5 g a.i./mu) it was 30.6%; in data set [5] (Echinochloa phyllopogon, (i) 1 g a.i./mu), 8.3%; in data set [5] (Echinochloa phyllopogon, (i) 2 g a.i./mu) it was 18.7%; in [5] (Echinochloa phyllopogon, (i) 3 g a.i./mu), 43.1%; in [5] (Leptochloa chinensis, (i) 5 g a.i./mu), 3.8%. For the same compound, the “Control effect of (i) alone” value is 20.3% in data set [5] (Leptochloa chinensis, (i) 15 g a.i./mu); 9.6% in [5] (Monochoria vaginalis, (i) 5 g a.i./mu); 12.3% in [5] (Monochoria vaginalis, (i) 6 g a.i./mu); 15.1% in data set [5] (Monochoria vaginalis, (i) 7.5 g a.i./mu); 23.9% in [5] (Monochoria vaginalis, (i) 15 g a.i./mu); 10.9% in [5] (Sagittaria trifolia, (i) 1 g a.i./mu). Moreover, the “Control effect of (i) alone” value in data set [5] (Sagittaria trifolia, (i) 5 g a.i./mu) is listed as 33.5%. For the same compound, the “Stellaria media (activity level)” value in data set [6] (Table 2, dose 60 g a.i./ha) was 3 (Level 3: growth control rate is greater than or equal to 40% and less than 60%); in data set [6] (Table 2, dose 125 g a.i./ha), 4 (Level 4: growth control rate is greater than or equal to 60% and less than 85%); in [6] (Table 2, dose 250 g a.i./ha) it was 4 (Level 4: growth control rate is greater than or equal to 60% and less than 85%); in [6] (Table 2, dose 500 g a.i./ha), 4 (Level 4: growth control rate is greater than or equal to 60% and less than 85%). Besides, the “Amaranthus retroflexus (activity level)” value in [7] (Table 2, dose 60 g a.i./ha) is 4 (Level 4: growth control rate is greater than or equal to 60% and less than 85%); in data set [7] (Table 2, dose 125 g a.i./ha), 4 (Level 4: growth control rate is greater than or equal to 60% and less than 85%); in data set [7] (Table 2, dose 250 g a.i./ha), 4 (Level 4: growth control rate is greater than or equal to 60% and less than 85%); in data set [7] (Table 2, dose 500 g a.i./ha) it was 4 (Level 4: growth control rate is greater than or equal to 60% and less than 85%).
As for `Cc1nnc(NC(=O)c2ccc(C(F)(F)F)c(S(C)(=O)=O)c2C)o1` [Control Compound B, reference compound], the “Selection index between rice and Echinochloa crusgali” value in data set [8] amounted to 0.8. The “Indica rice (Huanghuazhan) (plant damage level)” value (“Indica rice (Huanghuazhan)” below) was 3 (Level 3: growth control rate is greater than or equal to 40% and less than 60%) in data set [9] (Dose 125 g a.i./ha); 4 (Level 4: growth control rate is greater than or equal to 60% and less than 85%) in data set [9] (Dose 250 g a.i./ha). The “Japonica rice (Huaidao No. 5) (plant damage level)” value was 3 (Level 3: growth control rate is greater than or equal to 40% and less than 60%) in data set [10] (Dose 125 g a.i./ha); 3 (Level 3: growth control rate is greater than or equal to 40% and less than 60%) in data set [10] (Dose 250 g a.i./ha).
`Cc1nnc(NC(=O)c2ccc(C(F)(F)F)c(N3CCCC3=O)c2Cl)o1` [Control Compound C, reference compound]: the “Selection index between rice and Echinochloa crusgali” value in data set [8] amounted to 1.1. Moreover, the “Indica rice (Huanghuazhan)” value in [9] (Dose 125 g a.i./ha) is on record as 5 (Level 5: growth control rate is above 85%). Besides, in data set [10] (Dose 125 g a.i./ha), the “Japonica rice (Huaidao No. 5) (plant damage level)” value was 4 (Level 4: growth control rate is greater than or equal to 60% and less than 85%).
`CCS(=O)(=O)c1c(C(F)(F)F)ccc(C(=O)Nc2nnc(C)o2)c1Cl` [Control Compound D, reference compound]: the “Selection index between rice and Echinochloa crusgali” value in [8] is on record as 1. Moreover, the “Indica rice (Huanghuazhan)” value in data set [9] (Dose 60 g a.i./ha) is given as 5 (Level 5: growth control rate is above 85%). Also, the “Japonica rice (Huaidao No. 5) (plant damage level)” value in data set [10] (Dose 60 g a.i./ha) is listed as 5 (Level 5: growth control rate is above 85%).
